Residues, ends and D or L forms follow the SMILES beside them.
Tests used:
[1] = system: VLA-4/VCAM-1 dependent cell adhesion; assay: Real-time cell aggregation between U937 FPR (ΔST) and VCAM-1-transfected B78H1 cells; format: cell-based, human; conditions: U937 FPR ΔST + B78H1/VCAM-1; fMLFF 100 nM; DEA-NONOate 250 μM; LDV block 2 μM 6 min after mixing
Method: Real-time aggregation experiments were conducted as described under “Methods”, infra. U937/AST FPR stably transfected cells, which constitutively express VLA-4, were labeled with red fluorescent dye, and B78H1/VCAM-1 transfectants were stained with green fluorescent dye. […] Next, cells were mixed and real-time cell aggregation (red and green double positive events) was followed. To determine the level of VLA-4 dependent cell aggregation, 6 min after cell mixing, excess unlabelled VLA-4 specific ligand was added (arrow, LDV block, 2 μM).
Prior to the experiment, individual cell populations were stained with either of two fluorescent dyes (red and green). Next, the cell populations were mixed, and the appearance of double positive events, representing cellular aggregates, was followed in real-time by flow cytometry (see FIG. 1, 2, 3 in [55] for method details).
The cell suspension adhesion assay has been described previously. Briefly, U937/AST FPR stably transfected cells were labeled with red fluorescent PKH26GL dye, and B78H1/VCAM-1 transfectants were stained with green fluorescent PKH67GL dye (Sigma-Aldrich). Labeled cells were washed, resuspended in HEPES buffer supplemented with 0.1% HSA and stored on ice until used in assays. Control U937 cells were preincubated with the 1 μM LDV-containing small molecule for blocking adhesion. Prior to data acquisition, cells were warmed to 37° C. for 10 min separately and then mixed. During data acquisition, the samples were stirred with a 5×2-mm magnetic stir bar (Bel-Art Products, Pequannock, N.J.) at 300 rpm and kept at 37° C. For stimulation, cells were treated with appropriate GPCR ligands at saturating concentration (10 times or higher than Kd). In several experiments cells were treated sequentially with two different compounds. […] The percentage of aggregates was calculated as follows: % U937 cells in aggregates=number of aggregates/(number of aggregates+number of U937 singlets))×100. […]

VLA-4 [2] = assay: Real-time flow cytometric binding of LDV-FITC probe (VLA-4 affinity change) on GPCR-transfected U937 cells; format: cell-based, human; conditions: for effect on magnitude of LDV-FITC binding response, compound added prior to IL-8 activation: U937 CXCR2/IL-8RB; for effect on magnitude of LDV-FITC binding response, compound added prior to IL-8 activation / effect on magnitude of LDV-FITC binding response, compound added prior to SDF-1 activation: added at 0 time point, BAY 41-2272 100 μM; for effect on magnitude of LDV-FITC binding response, compound added prior to SDF-1 activation: U937 CXCR4; for reversibility of the decrease in LDV-FITC binding / effect on LDV-FITC binding, compound added after fMLFF activation: U937 non-desensitizing FPR mutant (ΔST), LDV-FITC 4 nM, fMLFF 100 nM; for effect on LDV-FITC binding, compound added after fMLFF activation: different concentrations
Method: Experiments were conducted as described under “Methods”, infra. A, LDV-FITC probe binding and dissociation on U937 cells stably transfected with the non-desensitizing mutant of FPR (ΔST) receptor plotted as mean channel fluorescence (MCF) versus time.
The experiment involved sequential addition of fluorescent LDV-FITC probe (4 nM, below saturation, added 2 min prior to addition of Gαi-coupled receptor ligand, fMLFF, 100 nM), and different concentrations of DEA-NONOate (nitric oxide donor) (arrows). Control cells were treated with vehicle. The MCF value corresponding to cell autofluorescence is indicated by the horizontal arrow. […] Curves are means of two independent determinations calculated on a point-by-point basis (n=2). B, LDV-FITC probe binding and dissociation on U937 cells stably transfected with wild type CXCR4 receptor plotted as mean channel fluorescence (MCF) versus time.
The experiment involved sequential addition of fluorescent LDV-FITC probe (4 nM), CXCL12/SDF-1 (12 nM), and DEA-NONOate (250 μM, nitric oxide donor) or vehicle (control) (arrows). Rapid and reversible binding of the probe reflects the VLA-4 affinity change. Curves are means of two independent determinations calculated on a point-by-point basis (n=2). SEM of mean, calculated on a point by point basis, indicated using error bars to show significance of the difference between treatment and control samples. C, LDV-FITC probe binding and dissociation on U937 cells stably transfected with wild type CXCR2/IL-8RB receptor plotted as mean channel fluorescence (MCF) versus time.
The experiment involved sequential addition of the fluorescent LDV-FITC probe (4 nM), CXCL8/IL-8 (20 nM), and DEA-NONOate (250 μM, nitric oxide donor) or vehicle (control) (arrows). This experiment is analogous to the one shown in panel B. One representative experiment of three experiments is shown. Curves are means of two independent determinations calculated on a point-by-point basis (n=2). D, LDV-FITC probe binding and dissociation on U937 cells stably transfected with wild type CXCR4 receptor plotted as mean channel fluorescence (MCF) versus time.
The experiment involved sequential addition of the DEA-NONOate (250 μM, nitric oxide donor) or vehicle (control) at the 0 time point, and the fluorescent LDV-FITC probe (4 nM), CXCL12/SDF-1 (12 nM) (arrows). Rapid and reversible binding of the probe reflects the VLA-4 affinity change. Excess unlabelled competitor LDV (1 μM) is added at the end of the experiment to determine the non-specific binding of the probe. Curves are means of two independent determinations calculated on a point-by-point basis (n=2). SEM, calculated on a point by point basis, is indicated using error bars to show the significance of the difference between treatment and control samples. E, LDV-FITC probe binding and dissociation on U937 cells stably transfected with wild type CXCR2/IL-8RB receptor plotted as mean channel fluorescence (MCF) versus time.
The experiment involved sequential addition of DEA-NONOate (250 μM, nitric oxide donor) or vehicle (control) at the 0 time point, and the fluorescent LDV-FITC probe (4 nM), CXCL8/IL-8 (20 nM) (arrows). Excess unlabelled competitor LDV (1 μM) added at the end of the experiment to determine the non-specific binding of the probe. This experiment is analogous to the one shown in panel D. One representative experiment of three experiments is shown. Curves are means of two independent determinations calculated on a point-by-point basis (n=2). […] Experiments shown in the different panels were performed using different instruments, and therefore MCF values are not identical. […]
LDV-FITC probe binding and dissociation on U937 cells stably transfected with the non-desensitizing mutant of FPR plotted as mean channel fluorescence (MCF) versus time. […]

VLA-4 [3] = biological target: VLA-4 (Homo sapiens, UniProt P05556+P13612); assay: Kinetic dissociation rate (koff) analysis of LDV-FITC probe on U937 cells with non-desensitizing FPR mutant; format: cell-based; conditions: U-937; U937 FPR ΔST; fMLFF 100 nM then BAY 41-2272 50 μM; LDV-FITC 25 nM, LDV block 2 μM; read-out: dissociation rate constant koff of LDV-FITC after fMLFF and BAY 41-2272
Method: The experiment involved sequential addition of BAY 41-2272 (100 μM, guanylyl cyclase activator) or vehicle (control) at the 0 time point, and the fluorescent LDV-FITC probe (4 nM), and CXCL8/IL-8 (20 nM) (arrows). Excess unlabelled competitor LDV (1 μM) added at the end of the experiment to determine the non-specific binding of the probe. This experiment is analogous to the one shown in panel B. One representative experiment of two experiments is shown. Curves are means of two independent determinations calculated on a point-by-point basis (n=2). […] D, Kinetic analysis of binding and dissociation of LDV-FITC probe on U937 cells stably transfected with the non-desensitizing mutant of FPR. Cells were sequentially treated with the LDV-FITC probe (25 nM, near saturation), the Gαi-coupled receptor ligand (fMLFF, 100 nM), BAY 41-2272 (guanylyl cyclase activator, 50 μM) (arrows). At time points indicated by arrows, cells were treated with excess unlabeled LDV containing small molecule (2 μM), and the dissociation of the fluorescent molecule was followed. Dissociation rate constants (koff) were obtained by fitting dissociation curves to a single exponential decay equation (as described in the text). Experiments shown in the different panels were performed using different instruments, and therefore MCF values are not identical. E, Dissociation rate values, obtained in experiments analogous to panel B, summarized as a bar graph showing mean and SEM (n=4). Colors of the dissociation curves in panel D and bars on panel E are matching. The difference between koffs for “resting” and “fMLFF activated”, and between “fMLFF activated” and “fMLFF activated and treated with BAY 41-2272” is statistically significant (P=0.0006<0.05) as calculated by one-way analysis of variance (ANOVA) using GraphPad Prism software. […]
Next, the regions of the ligand-binding curves corresponding to the dissociation of the LDV-FITC probe were fitted to a single exponential decay equation. […] The affinity state induced by guanylyl cyclase activator was quantitatively similar to the resting state before activation. […]

[4] = DEA-NONOate 250 μM, CXCL8/IL-8 20 nM
[5] = DEA-NONOate 250 μM, CXCL12/SDF-1 12 nM

Chain of VLA-4 (Homo sapiens, UniProt P05556+P13612) (P13612 34-1032): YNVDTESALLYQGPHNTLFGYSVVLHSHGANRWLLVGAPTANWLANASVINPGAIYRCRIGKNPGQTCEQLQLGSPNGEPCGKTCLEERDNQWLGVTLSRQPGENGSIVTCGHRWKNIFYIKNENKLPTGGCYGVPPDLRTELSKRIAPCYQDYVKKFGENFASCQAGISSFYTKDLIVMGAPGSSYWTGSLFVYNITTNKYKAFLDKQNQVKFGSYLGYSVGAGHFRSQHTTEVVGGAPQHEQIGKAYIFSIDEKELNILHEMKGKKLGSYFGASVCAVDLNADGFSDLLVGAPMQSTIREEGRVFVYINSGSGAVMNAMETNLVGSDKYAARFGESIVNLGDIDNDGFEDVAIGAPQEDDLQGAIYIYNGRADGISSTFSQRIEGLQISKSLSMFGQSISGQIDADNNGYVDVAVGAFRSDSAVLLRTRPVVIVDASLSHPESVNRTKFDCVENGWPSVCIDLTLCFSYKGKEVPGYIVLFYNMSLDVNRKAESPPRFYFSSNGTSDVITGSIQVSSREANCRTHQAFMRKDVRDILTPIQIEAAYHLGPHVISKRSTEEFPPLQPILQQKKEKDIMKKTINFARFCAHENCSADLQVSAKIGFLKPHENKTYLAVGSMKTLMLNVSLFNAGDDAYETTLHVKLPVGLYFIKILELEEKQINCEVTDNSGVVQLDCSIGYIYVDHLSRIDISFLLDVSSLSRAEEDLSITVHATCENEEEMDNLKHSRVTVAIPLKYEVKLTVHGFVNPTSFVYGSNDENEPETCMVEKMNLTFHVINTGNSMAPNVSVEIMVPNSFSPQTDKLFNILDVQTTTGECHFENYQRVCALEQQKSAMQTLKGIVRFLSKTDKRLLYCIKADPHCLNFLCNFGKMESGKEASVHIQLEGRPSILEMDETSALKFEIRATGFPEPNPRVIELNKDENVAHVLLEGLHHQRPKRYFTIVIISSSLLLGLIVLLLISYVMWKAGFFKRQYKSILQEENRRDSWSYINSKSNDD
Chain of VLA-4 (Homo sapiens, UniProt P05556+P13612) (P05556 21-798): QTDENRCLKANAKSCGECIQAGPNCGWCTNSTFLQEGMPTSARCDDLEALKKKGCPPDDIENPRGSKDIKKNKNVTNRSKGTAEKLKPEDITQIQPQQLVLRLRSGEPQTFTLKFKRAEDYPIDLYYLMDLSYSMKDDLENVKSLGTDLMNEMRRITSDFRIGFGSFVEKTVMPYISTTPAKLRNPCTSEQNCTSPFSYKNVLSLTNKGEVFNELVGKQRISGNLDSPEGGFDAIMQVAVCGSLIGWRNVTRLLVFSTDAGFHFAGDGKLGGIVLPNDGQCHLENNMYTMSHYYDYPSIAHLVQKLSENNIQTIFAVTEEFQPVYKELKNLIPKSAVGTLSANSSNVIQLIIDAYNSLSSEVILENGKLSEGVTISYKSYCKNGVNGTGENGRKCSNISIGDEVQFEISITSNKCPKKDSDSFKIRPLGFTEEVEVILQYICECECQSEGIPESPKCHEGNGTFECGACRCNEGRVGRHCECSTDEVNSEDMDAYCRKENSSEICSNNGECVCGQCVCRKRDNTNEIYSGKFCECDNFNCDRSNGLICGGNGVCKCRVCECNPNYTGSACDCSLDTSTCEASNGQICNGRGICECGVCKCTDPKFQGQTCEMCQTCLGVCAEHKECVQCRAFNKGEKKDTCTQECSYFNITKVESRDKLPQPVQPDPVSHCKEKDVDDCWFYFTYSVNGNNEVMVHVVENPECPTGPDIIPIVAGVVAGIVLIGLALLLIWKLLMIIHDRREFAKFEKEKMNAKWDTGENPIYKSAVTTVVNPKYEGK

Row | Structure (SMILES) | effect on VLA-4/VCAM-1 dependent cell aggregation (% U937 cells in aggregates) [1] | effect on magnitude of LDV-FITC binding response, compound added prior to IL-8 activation (VLA-4 [2]; [4]) | effect on magnitude of LDV-FITC binding response, compound added prior to SDF-1 activation (VLA-4 [2]; [5]) | reversibility of the decrease in LDV-FITC binding (VLA-4 [2]) | effect on LDV-FITC binding, compound added after fMLFF activation (VLA-4 [2]) | effect on LDV-FITC binding, compound added after CXCL8/IL-8 activation (VLA-4 [2]; U937 wild type CXCR2/IL-8RB, CXCL8/IL-8 20 nM, DEA-NONOate 250 μM) | effect on LDV-FITC binding, compound added after CXCL12/SDF-1 activation (VLA-4 [2]; U937 wild type CXCR4, CXCL12/SDF-1 12 nM, DEA-NONOate 250 μM) | koff (VLA-4 [3]) [s⁻¹]
1 | Cc1ccccc1NC(=O)Nc1ccc(CC(=O)N[C@@H](CC(C)C)C(=O)N[C@@H](CC(=O)O)C(=O)N[C@H](C(=O)N2CCC[C@H]2C(=O)N[C@@H](C)C(=O)N[C@@H](C)C(=O)N[C@@H](CCCCN)C(=O)O)C(C)C)cc1 [LDV, 4-((N′-2-methylphenyl)ureido)-phenylacetyl-L-leucyl-L-aspartyl-L-valyl-L-prolyl-L-alanyl-L-alanyl-L-lysine] | rapid cellular disaggregation |  |  |  |  |  |  | 
2 | CCN(CC)/[N+]([O-])=N/O [DEA-NONOate] | abolished fMLFF-dependent cellular aggregation | significant decrease in the magnitude of the response | significant decrease in the magnitude of the response | not reversible | rapid and dose-dependent decrease in the binding of the VLA-4 specific ligand | faster and more pronounced signal decrease | faster and more pronounced signal decrease | 
3 | Nc1nc(-c2nn(Cc3ccccc3F)c3ncccc23)ncc1C1CC1 [BAY 41-2272, 3-(4-Amino-5-cyclopropylpyrimidin-2-yl)-1-(2-fluorobenzyl)-1H-pyrazolo[3,4-b]pyridine] |  | decrease in the magnitude of the response | decrease in the magnitude of the response | partially reversible | significant decrease in LDV-FITC binding |  |  | ~0.036
4 | CCCC(=O)Nc1nc2c(ncn2C2OC3COP(=O)([O-])OC3C2OC(=O)CCC)c(=O)[nH]1.[Na+] (stereo not shown) [dbcGMP, N^2,2′-O-Dibutyrylguanosine 3′,5′-cyclic monophosphate] |  |  |  | reversible | dose-dependent decrease in the binding of the probe |  |  | 
5 | CSCC[C@H](NC=O)C(=O)N[C@@H](CC(C)C)C(=O)N[C@@H](Cc1ccccc1)C(=O)N[C@@H](Cc1ccccc1)C(=O)O [fMLFF, N-formyl-L-methionyl-L-leucyl-L-phenylalanyl-L-phenylalanine] (HELM PEPTIDE1{[O=C[*:2]].M.L.F.F}$$$$V2.0) | rapid increase in cell aggregation |  |  |  |  |  |  | 

Reference: patent publication US20140088034A1, “NITRIC OXIDE/cGMP PATHWAY INHIBITION OF VLA-4 RELATED CELL ADHESION” (STC.UNM, priority 2011, published 2014)
